# According to patent US20120149718A1, “Amido Compounds” (priority 2010, published 2012):
# Experiments:
# [1] = target: T1, human P2X7 (Homo sapiens, UniProt Q99572); assay: Intracellular Calcium Flux (FLIPR) Assay; type: cell-based; details: 1321N1 cells stably expressing full length human P2X7; agonist 100 μM BzATP; fluo-3 calcium flux; read-out: FLIPR pIC50 hP2X7-1321n1 (converted)
# T1 construct: 1321N1 cells stably expressing the full length human P2X7 gene (1321N1-hP2X7)
# T1 sequence (Q99572 1-595): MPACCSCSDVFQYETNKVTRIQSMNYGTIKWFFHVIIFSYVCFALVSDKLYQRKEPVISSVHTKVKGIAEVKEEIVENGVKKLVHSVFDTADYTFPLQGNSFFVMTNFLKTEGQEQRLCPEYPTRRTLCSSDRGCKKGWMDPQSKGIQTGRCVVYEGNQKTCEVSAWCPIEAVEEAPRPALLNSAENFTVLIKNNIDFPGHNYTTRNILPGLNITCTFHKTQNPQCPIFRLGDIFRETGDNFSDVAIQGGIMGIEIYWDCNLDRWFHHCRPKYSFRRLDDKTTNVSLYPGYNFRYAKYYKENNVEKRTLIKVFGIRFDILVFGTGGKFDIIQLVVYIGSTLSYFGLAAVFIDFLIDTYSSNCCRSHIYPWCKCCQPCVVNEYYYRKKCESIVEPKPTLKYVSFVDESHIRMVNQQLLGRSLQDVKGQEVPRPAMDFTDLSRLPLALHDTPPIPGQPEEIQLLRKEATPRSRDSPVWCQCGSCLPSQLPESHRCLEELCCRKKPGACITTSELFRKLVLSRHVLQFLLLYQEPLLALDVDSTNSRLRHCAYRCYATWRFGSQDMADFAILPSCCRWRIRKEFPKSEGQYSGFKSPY
# Experimental: Stock solutions of compounds were prepared from powders as a 10 mM DMSO stock solution. These solutions were stored at RT during the two week period of these experiments to prevent freeze-thaw of the DMSO stocks. The DMSO stocks were added to the appropriate assay buffer at a concentration of 10 μM, and then diluted serially to the final concentrations that were tested. No observable precipitate was formed at any time during this process. The aqueous solutions of compounds as well as ATP (Sigma A7699) and BzATP (Sigma B6396) were prepared fresh for each day of experiment.
# 1321N1 cells stably expressing the full length human P2X7 gene (1321N1-hP2X7) and HEK293 cells stably expressing the full length rat P2X7 gene (HEK293-rP2X7) were obtained from the Roche Cell Culture Facility. 1321N1-hP2X7 cells were grown in Dulbecco's Modified Eagle's Medium (DMEM) high glucose supplemented with 10% FBS and 250 μg/mL G418. HEK293-rP2X7 cells were grown in DMEM/F-12 supplemented with 10% FBS, 1 mM CaCl2, 2 mM MgCl2, 2 mM L-Glutamine and 500 μg/ml G418. Cells were split such that they never became >70% confluent.
# On the day prior to the experiment, 1321N1-hP2X7 or HEK293-rP2X7 cells were released into suspension with calcium-free PBS+Versene and washed by centrifugation with calcium-free PBS to remove the Versene. Cells were resuspended in growth medium at a density of 2.5×10^5 cells/mL and seeded into black walled, clear bottom 96 well plates (50,000 cells/well) approximately 18 hr prior to intracellular calcium flux experiments.
# On the day of the experiment, plates were washed with FLIPR buffer (calcium- and magnesium-free Hank's Balanced Salt Solution (HBSS) supplemented with 10 mM Hepes, 2.5 mM probenecid and 2 mM calcium chloride) using a BIO-TEK 96 channel plate washer and incubated with […] fluo-3 dye at 37° C. for one hr. The dye was then removed by plate washing and the cells were allowed to equilibrate for 20 min at room temperature with antagonist or vehicle (FLIPR buffer). Agonist (100 μM BzATP final concentration for hP2X7; 5 μM BzATP final concentration or rP2X7) was added online with the FLIPR and fluorescence measurements made at 1 sec intervals for 60 sec followed by 3 sec intervals for a further 4 min (5 min total). A final addition of 5 μM ionomycin was made and the maximal BzATP-evoked fluorescence normalized to the maximal ionomycin-evoked fluorescence.
IC50 [1] [nM],melting point [°C],SMILES
389,193.5 to 194.8,"Cc1ccccc1CC(C(=O)Nc1cnc(Br)cn1)c1ccc(S(C)(=O)=O)cc1 (stereo not drawn) [Compound I-1, N-(5-Bromo-pyrazin-2-yl)-2-(4-methanesulfonyl-phenyl)-3-o-tolyl-propionamide]"
302,105.7 to 108.9,"Cc1ccccc1CC(C(=O)Nc1nc2ccccc2o1)c1ccc(S(C)(=O)=O)cc1 (stereo not drawn) [Compound I-2, N-Benzooxazol-2-yl-2-(4-methanesulfonyl-phenyl)-3-o-tolyl-propionamide]"
1170,184 to 185,"Cc1ccccc1CC(C(=O)Nc1nc2cc(Cl)ccc2o1)c1ccc(S(C)(=O)=O)cc1 (stereo not drawn) [Compound I-3, N-(5-Chloro-benzooxazol-2-yl)-2-(4-methanesulfonyl-phenyl)-3-o-tolyl-propionamide]"
81.3,118 to 119,"CS(=O)(=O)c1ccc(C(Cc2ccccc2)C(=O)Nc2nc3ccccc3o2)cc1 (stereo not drawn) [Compound I-4, N-Benzooxazol-2-yl-2-(4-methanesulfonyl-phenyl)-3-phenyl-propionamide]"
537,107 to 108,"CS(=O)(=O)c1ccc(C(Cc2ccccc2Cl)C(=O)Nc2nc3ccccc3o2)cc1 (stereo not drawn) [Compound I-5, N-Benzooxazol-2-yl-3-(2-chloro-phenyl)-2-(4-methanesulfonyl-phenyl)-propionamide]"
794,127 to 128,"CS(=O)(=O)c1ccc(C(Cc2ccc(F)cc2Cl)C(=O)Nc2nc3ccccc3o2)cc1 (stereo not drawn) [Compound I-6, N-Benzooxazol-2-yl-3-(2-chloro-4-fluoro-phenyl)-2-(4-methanesulfonyl-phenyl)-propionamide]"
63.1,109 to 110,"CS(=O)(=O)c1ccc(C(Cc2ccc(F)cc2)C(=O)Nc2nc3ccccc3o2)cc1 (stereo not drawn) [Compound I-7, N-Benzooxazol-2-yl-3-(4-fluoro-phenyl)-2-(4-methanesulfonyl-phenyl)-propionamide]"
87.1,99 to 100,"CS(=O)(=O)c1ccc(C(Cc2ccccc2F)C(=O)Nc2nc3ccccc3o2)cc1 (stereo not drawn) [Compound I-8, N-Benzooxazol-2-yl-3-(2-fluoro-phenyl)-2-(4-methanesulfonyl-phenyl)-propionamide]"
229,101.9 to 105.9,"COc1ccc(CC(C(=O)Nc2nc3ccccc3o2)c2ccc(S(C)(=O)=O)cc2)cc1 (stereo not drawn) [Compound I-9, N-Benzooxazol-2-yl-2-(4-methanesulfonyl-phenyl)-3-(4-methoxy-phenyl)-propionamide]"
741,99 to 100,"CS(=O)(=O)c1cccc(C(Cc2ccc(F)cc2)C(=O)Nc2nc3ccccc3o2)c1 (stereo not drawn) [Compound I-12, N-Benzooxazol-2-yl-3-(4-fluoro-phenyl)-2-(3-methanesulfonyl-phenyl)-propionamide]"
115,–,"CS(=O)(=O)c1ccc(C(Cc2ccc(F)cc2)C(=O)Nc2nc3cc(C(F)(F)F)ccc3o2)cc1 (stereo not drawn) [Compound I-41, 3-(4-Fluoro-phenyl)-2-(4-methanesulfonyl-phenyl)-N-(5-trifluoromethyl-benzooxazol-2-yl)-propionamide]"
28.8,–,"Cc1cccc2nc(NC(=O)C(Cc3ccc(F)cc3)c3ccc(S(C)(=O)=O)cc3)oc12 (stereo not drawn) [Compound I-42, 3-(4-Fluoro-phenyl)-2-(4-methanesulfonyl-phenyl)-N-(7-methyl-benzooxazol-2-yl)-propionamide]"
102,–,"Cc1cc(C)c2oc(NC(=O)C(Cc3ccc(F)cc3)c3ccc(S(C)(=O)=O)cc3)nc2c1 (stereo not drawn) [Compound I-43, N-(5,7-Dimethyl-benzooxazol-2-yl)-3-(4-fluoro-phenyl)-2-(4-methanesulfonyl-phenyl)-propionamide]"
75.9,–,"COc1ccc2oc(NC(=O)C(Cc3ccc(F)cc3)c3ccc(S(C)(=O)=O)cc3)nc2c1 (stereo not drawn) [Compound I-44, 3-(4-Fluoro-phenyl)-2-(4-methanesulfonyl-phenyl)-N-(5-methoxy-benzooxazol-2-yl)-propionamide]"
617,–,"COC(=O)c1ccc2nc(NC(=O)C(Cc3ccc(F)cc3)c3ccc(S(C)(=O)=O)cc3)oc2c1 (stereo not drawn) [Compound I-45, 2-[3-(4-Fluoro-phenyl)-2-(4-methanesulfonyl-phenyl)-propionylamino]-benzooxazole-6-carboxylic acid methyl ester]"
44.7,–,"CS(=O)(=O)c1ccc(C(Cc2ccc(F)cc2)C(=O)Nc2nc3cc(F)ccc3o2)cc1 (stereo not drawn) [Compound I-46, N-(5-Fluoro-benzooxazol-2-yl)-3-(4-fluoro-phenyl)-2-(4-methanesulfonyl-phenyl)-propionamide]"
170,–,"CS(=O)(=O)c1ccc(C(Cc2ccc(F)cc2)C(=O)Nc2nc3cc(S(=O)(=O)N4CCCC4)ccc3o2)cc1 (stereo not drawn) [Compound I-47, 3-(4-Fluoro-phenyl)-2-(4-methanesulfonyl-phenyl)-N-[5-(pyrrolidine-1-sulfonyl)-benzooxazol-2-yl]-propionamide]"
295,–,"CS(=O)(=O)c1ccc(C(Cc2ccc(F)cc2)C(=O)Nc2ncc(-c3ccccc3)o2)cc1 (stereo not drawn) [Compound I-48, 3-(4-Fluoro-phenyl)-2-(4-methanesulfonyl-phenyl)-N-(5-phenyl-oxazol-2-yl)-propionamide]"
871,–,"CC(=O)OCc1cnc(NC(=O)C(Cc2ccc(F)cc2)c2ccc(S(C)(=O)=O)cc2)cn1 (stereo not drawn) [Compound I-49, Acetic acid 5-[3-(4-fluoro-phenyl)-2-(4-methanesulfonyl-phenyl)-propionylamino]-pyrazin-2-ylmethyl ester]"
380,–,"CS(=O)(=O)c1ccc([C@@H](Cc2ccc(F)cc2)C(=O)Nc2cnc(CO)cn2)cc1 [Compound I-50a, (R)-3-(4-Fluoro-phenyl)-N-(5-hydroxymethyl-pyrazin-2-yl)-2-(4-methanesulfonyl-phenyl)-propionamide]"
> 10000,–,"CS(=O)(=O)c1ccc([C@H](Cc2ccc(F)cc2)C(=O)Nc2cnc(CO)cn2)cc1 [Compound I-50b, (S)-3-(4-Fluoro-phenyl)-N-(5-hydroxymethyl-pyrazin-2-yl)-2-(4-methanesulfonyl-phenyl)-propionamide]"
31.6,–,"CS(=O)(=O)c1ccc(C(Cc2ccc(F)cc2)C(=O)Nc2nc3cnccc3o2)cc1 (stereo not drawn) [Compound I-51, 3-(4-Fluoro-phenyl)-2-(4-methanesulfonyl-phenyl)-N-oxazolo[4,5-c]pyridin-2-yl-propionamide]"
66.1,–,"CS(=O)(=O)c1ccc(C(Cc2ccc(F)cc2)C(=O)Nc2nc3ccncc3o2)cc1 (stereo not drawn) [Compound I-52, 3-(4-Fluoro-phenyl)-2-(4-methanesulfonyl-phenyl)-N-oxazolo[5,4-c]pyridin-2-yl-propionamide]"
407,–,"CS(=O)(=O)c1ccc(CC(C(=O)Nc2nc3ccccc3o2)c2ccc(F)cc2)cc1 (stereo not drawn) [Compound I-53, N-Benzooxazol-2-yl-2-(4-fluoro-phenyl)-3-(4-methanesulfonyl-phenyl)-propionamide]"
30.9,–,"O=C(Nc1nc2ccccc2o1)C(Cc1ccc(F)cc1)c1ccncc1 (stereo not drawn) [Compound I-54, N-Benzooxazol-2-yl-3-(4-fluoro-phenyl)-2-pyridin-4-yl-propionamide]"
661,–,"CS(=O)(=O)c1ccc(C(Cc2ccncc2)C(=O)Nc2nc3ccccc3o2)cc1 (stereo not drawn) [Compound I-55, N-Benzooxazol-2-yl-2-(4-methanesulfonyl-phenyl)-3-pyridin-4-yl-propionamide]"
